Assay results: patent publication US20240216250A1, “COSMETIC PEPTIDES FOR IMPROVING SKIN REJUVENATION” (Lean Life Sciences, Inc., priority 2021, published 2024)
Entries after “also recorded” stand apart in the source; their conditions may differ.

Tests used:
skin cells [1] = experiment: Collagen and fibronectin levels in skin cells upon peptide treatment; type: cell-based; conditions: Example 1-18, at a particular concentration, present tense
Protocol: (§1) An additional group of skin cells are treated with one of […] (SEQ ID NO: 3) and […] (SEQ ID NO: 4) in the same manner as Example 1-1.
The fructose, glucose, and sucrose concentrations in the groups where the above peptides are treated are not affected (data not shown), while the extra cellular matrix molecules, collagen and fibronectin, are determined.

skin cells [2] = experiment: Fructose, glucose and sucrose concentration in skin cells, same manner as Example 1-1; type: cell-based; conditions: Example 1-18, present tense
Protocol: (§2) Fructose concentration in 3T3-L1 cell lysates was measured using the Fructose Assay Kit (Abcam, Cambridge, UK). Six-well plates were seeded with 5×10^5 3T3-L1 cells/well one day before treating with 150 μM peptide. After 48 hours of treatment, the cells were harvested and fructose concentrations were assayed according to the manufacturer's instruction.
An additional group of skin cells are treated with one of KGGRAKD, KGG, GGR, GRA, RAK, AKD, DKA, KAR, ARG, RGG, GGK, and DKARGGK in the same manner as Example 1-1.
An additional group of skin cells were treated with […] (SEQ ID NO: 5) in the same manner as Example 1-1.
as §1

DIO mice = experiment: Body weight gain in DIO mice: obesity progression model (OPM) and obesity model (OM); type: in vivo; conditions: for Prevention of body weight gain: pre-obese OPM mice on HFD; for Anti-obesity efficacy (body weight): oral administration
Protocol: Prior to oral administration, peptides were administered to DIO mice via intraperitoneal (IP) and subcutaneous (SC) injections.
In the first phase, peptides were tested on pre-obese mice that were being fed high fat diet (HFD) to induce obesity (obesity progression model, OPM). In the second phase, these peptides were given to mice that had already developed obesity (obesity model, OM). […] As the activity of these three peptides varies depending on the injection route and the disease status, all three peptides, GGR, RAK, and AKD, were tested by oral administration.
Prior to oral administration, GGR, RAK, AKD, full-length ATS, and scrambled RKG peptides were administered to OPM mice via IP and SC injections to further screen an ideal peptide composition. PBS was included as a vehicle group. GGR, RAK, and AKD peptides were discovered to impede body weight gain in OPM mice. GGR and RAK were effective when given IP injections and AKD was effective by SC injections (FIGS. 4 and 5).
The second phase signified the post-obesity stage, where the same methods from phase 1 were used on OM mice.
(§3) GGR, RAK, and AKD peptides were tested in OPM and OM mice by oral administration. […] In obesity progression, adipocytes increase in both number and size due to escalating lipid accumulation (Parlee, S. D., et al., Methods Enzymol 537, 93-122, (2014)). Using the methods described above, abdominal fat pads of GGR, RAK, AKD, or PBS-treated DIO mice were histologically analyzed. Epididymal fat tissues were harvested from two mice per experimental group. All samples were fixed in 4% paraformaldehyde, H&E-stained, and imaged. At a 10× magnification, adipocyte cell counting was performed on the digital slide images using an automated adipocyte counting macro with the ImageJ software. A default thresholding method was used and [cell] sizing boundaries of 40-40,000 were set. Limitations of the segmentation tool led to some erroneous selections or regions of interest (ROI), which were manually corrected by adding or erasing lines. The number of cells per representative field were then determined using the ROI manager in ImageJ. Two or three high power fields (hpf) per tissue and two tissue samples per group were analyzed to reduce variability. Average cell count for each group was calculated accordingly. Areas of all adipocytes of interest were measured using the ROI measurement tool (ImageJ) and average area per cell was calculated accordingly.

3T3-L1 mature adipocytes = experiment: Lipid accumulation in 3T3-L1 adipocytes by Oil Red O staining, with cell count; type: cell-based, mouse; conditions: for Decrease in degree of lipid accumulation: 3T3-L1 mature adipocytes, quantitative Oil Red O analysis, Day 21 (H of FIG. 3); for Number and size of lipid droplets in adipocytes: Oil Red O, microscopy, peptides at 100 μM, three times per week for three weeks (Day 21), vs non-treated control; for Reduction of lipid accumulation: murine-based in vitro systems
Protocol: FIG. 3: Representative photomicrographs showing Oil Red O-stained mature adipocytes treated with peptides at 100 μM (Day 21). H: Quantitative analysis of the lipids accumulated in the adipocytes (Day 21). Control absorbance: 0.526 (Red line). I: Relative cell counts on day 21.
The effects of the minimal short peptides in blocking lipid accumulation in adipocytes were compared with their parent full-length peptide. After generating five different 3 amino acid fragments (KGG, GGR, GRA, RAK, and AKD) from the original ATS peptide (KGGRAKD (SEQ ID NO:1)), each peptide was administered to 3T3-L1 pre-adipocytes in five varying concentrations. Peptides were treated to the adipocytes three times per week for three weeks. Oil Red O staining was utilized to assess the lipid contents in mature adipocytes in culture. The morphological characteristics of 3T3-L1 mature adipocytes were observed by microscopy. […] Furthermore, the lipids were quantitatively analyzed.
The number of viable cells is counted prior to Oil Red O staining using Cell Counting Kit 8 (Dojindo). This cell viability study allows one to determine potential toxicities of the peptides and compensate for cell number variation-causing artifacts. Oil Red O is dissolved in isopropanol at […] to create a working solution. 12 ml of Oil Red O working solution is mixed with 8 ml dH2O and incubated for 10 minutes. This solution is then filtered using a 0.2 μm syringe filter. Adipocytes seeded on 96-well plates are washed with PBS twice. 10% formaldehyde is added for initial fixation and the plates are incubated for at least 30 minutes. The formaldehyde is removed and the cells are once again washed twice, this time with dH2O. 60% isopropanol is added to each well. The plates are incubated for 5 minutes. The isopropanol is removed from the wells and replaced with Oil Red O working solution. The plates are incubated for an additional 10 minutes. The Oil Red O solution is removed and washed four times with dH2O. Lastly, digital micrographs of the lipid droplets in adipocytes are taken using a light microscope. After the staining protocol, all plates are washed three times with 60% isopropanol. Each time, 5 minutes of gentle rocking was used. The Oil Red O is extracted with 100% isopropanol with gentle rocking for 5 minutes. 200 μl isopropanol per well is used as a background to measure absorbance at 492 nm using a BioTek microplate reader.

3T3-L1 cells = experiment: Fructose, glucose and sucrose concentration in adipocytes (3T3-L1 cell lysates, Fructose Assay Kit); type: cell-based, mouse
Protocol: as §2
In order to confirm the effect of peptides on reducing the fructose level in adipocytes, three groups of adipocytes were prepared. Among the three groups, one group was treated with GGR, and another group was treated with RAK. The remaining group was not treated with any peptides and used as a control group. […] Fructose—an intermediate metabolite of glucose—was measured to further probe glucose metabolism. 3T3-L1 cells treated with either peptide had lower fructose concentrations than untreated cells (FIG. 1).
An additional group of adipocytes are treated with one of KGGRAKD, KGG, GGR, GRA, RAK, AKD, DKA, KAR, ARG, RGG, GGK, and DKARGGK in the same manner as Example 1-1.

[3] = tested on: abdominal fat pads of DIO mice; experiment: Histological analysis of fat pads of DIO mice (adipocyte number and size); type: in vivo; conditions: epididymal fat
Protocol: FIG. 10. Histological analysis fat pads. An automated system detected and counted adipocytes (yellow line). Adipocyte number and size: average of 3 hpf images from 2 mice (total 6 images/group).
as §3
The primary function of adipocytes is to store energy in the form of lipids. The volume of lipid stored in an adipocyte cell increases as the third power of the diameter. Because mature adipocytes are composed of large lipid droplets that are surrounded by very thin cytoplasmic layers, the increase in volume of an adipocyte cell likely indicates increased lipid storage. Thus, smaller adipocyte size/area translates to reduced lipid accumulation.

[4] = Examples 1-2 to 1-11, same manner as Example 1-1
[5] = post-obese OM mice, IP injection
[6] = post-obese OM mice, SC injection
[7] = 3T3-L1 cells, 150 μM peptide, 48 hours, vs untreated control (FIG. 1)

For ACSSSPSKHCGGGSESPLKRQG, the “Collagen in skin cells vs control group” value (skin cells [1]) was “significantly higher than the control group”, the “Fibronectin in skin cells vs control group” value (skin cells [1]) was “significantly higher than the control group” and the “Fructose concentration in skin cells” value (skin cells [2]) was “not affected”. The “Glucose concentration in skin cells” value (skin cells [2]) was “not affected” and the “Sucrose concentration in skin cells” value (skin cells [2]) was “not affected”.

With ACTGSTQHQGGGSEHGAMEI the “Collagen in skin cells vs control group” value (skin cells [1]) was “significantly higher than the control group”, the “Fibronectin in skin cells vs control group” value (skin cells [1]) was “significantly higher than the control group” and the “Fructose concentration in skin cells” value (skin cells [2]) was “not affected”. For the same substance, the “Glucose concentration in skin cells” value (skin cells [2]) was “not affected” and the “Sucrose concentration in skin cells” value (skin cells [2]) was “not affected”.

With AKD the “Prevention of body weight gain” value (DIO mice; SC injection) was “best working peptide; also recorded: effective”, the “Anti-obesity efficacy (body weight)” value (DIO mice; pre-obese OPM mice) was “efficacious over GGR” and the “Decrease in degree of lipid accumulation” value (3T3-L1 mature adipocytes) was “approximately 20%”. For the same substance, the “Number and size of lipid droplets in adipocytes” value (from here on “Number and size”) (3T3-L1 mature adipocytes) was “smaller than those in the non-treated control”, the “Reduction of lipid accumulation” value (3T3-L1 mature adipocytes) was “effective in reducing lipid accumulation” and the “Fructose concentration in adipocytes vs control group” value (3T3-L1 cells; [4]) was “significantly lower than the control group”.

ARG was tested, and the “Fructose concentration in adipocytes vs control group” value (3T3-L1 cells; [4]) was “significantly lower than the control group”.

With DKA the “Fructose concentration in adipocytes vs control group” value (3T3-L1 cells; [4]) was “significantly lower than the control group”.

In the case of DKARGGK, the “Fructose concentration in adipocytes vs control group” value (3T3-L1 cells; [4]) is reported as “significantly lower than the control group”.

For GGK, the “Fructose concentration in adipocytes vs control group” value (3T3-L1 cells; [4]) was “significantly lower than the control group”.

With GGR the “Prevention of body weight gain / body weight change” value (DIO mice; [5]) was “positive effects on prevention of body weight gain”, the “Prevention of body weight gain / body weight change” value (DIO mice; [6]) was “effective” and the “Prevention of body weight gain” value (DIO mice; IP injection) was “positive effects on prevention of body weight gain; also recorded: effective”. For the same substance, the “Decrease in degree of lipid accumulation” value (3T3-L1 mature adipocytes) was “approximately 20%”, the “Number and size” value (3T3-L1 mature adipocytes) was “smaller than those in the non-treated control” and the “Reduction of lipid accumulation” value (3T3-L1 mature adipocytes) was “effective in reducing lipid accumulation”. The “Fructose concentration in adipocytes vs control group” value (3T3-L1 cells; [7]) was “significantly lower than the control group”.

In the case of GRA, the “Number and size” value (3T3-L1 mature adipocytes) is reported as “moderate differences in the morphology of lipid droplets” and the “Fructose concentration in adipocytes vs control group” value (3T3-L1 cells; [4]) is reported as “significantly lower than the control group”.

In the case of KAR, the “Fructose concentration in adipocytes vs control group” value (3T3-L1 cells; [4]) is reported as “significantly lower than the control group”.

With KGG the “Number and size” value (3T3-L1 mature adipocytes) was “moderate differences in the morphology of lipid droplets” and the “Fructose concentration in adipocytes vs control group” value (3T3-L1 cells; [4]) was “significantly lower than the control group”.

For RAK, the “Average cell count per field” value ([3]; adipocytes, 10× magnification, ImageJ, rank among all experimental groups (FIG. 10)) was “highest”, the “Activity by histological analysis of the fat pads” value ([3]; H&E, DIO mice) was “more active than GGR; also recorded: highest efficacy” and the “Average adipocyte area per cell” value ([3]; ImageJ ROI, rank among all experimental groups (FIG. 10)) was “lowest”. For the same substance, the “Prevention of body weight gain / body weight change” value (DIO mice; [5]) was “positive effects on prevention of body weight gain”, the “Prevention of body weight gain / body weight change” value (DIO mice; [6]) was “effective” and the “Anti-obesity efficacy (body weight)” value (DIO mice; post-obese OM mice) was “has anti-obesity efficacy”. The “Prevention of body weight gain” value (DIO mice; IP injection) was “positive effects on prevention of body weight gain; also recorded: effective”, the “Anti-obesity efficacy (body weight)” value (DIO mice; pre-obese OPM mice) was “efficacious over GGR; also recorded: has anti-obesity efficacy” and the “Decrease in degree of lipid accumulation” value (3T3-L1 mature adipocytes) was “approximately 20%”. The “Number and size” value (3T3-L1 mature adipocytes) was “smaller than those in the non-treated control”, the “Reduction of lipid accumulation” value (3T3-L1 mature adipocytes) was “effective in reducing lipid accumulation” and the “Fructose concentration in adipocytes vs control group” value (3T3-L1 cells; [7]) was “significantly lower than the control group”.

RGG was tested, and the “Fructose concentration in adipocytes vs control group” value (3T3-L1 cells; [4]) was “significantly lower than the control group”.

With RKG [reference compound] the Anti-obesity effects (DIO mice; IP and SC studies, regardless of injection route or schedule) was “no anti-obesity effects”, the “Prevention of body weight gain / body weight change” value (DIO mice; [5]) was “did not show meaningful efficacy over the vehicle group” and the “Prevention of body weight gain” value (DIO mice; IP injection) was “did not show meaningful efficacy over the vehicle group; also recorded: no anti-obese effects”. The “Prevention of body weight gain” value (DIO mice; SC injection) was “no anti-obese effects”.
